# Reference: patent US20090221513A1, “Treatment of Neurodegenerative Disorders” (The Open University, priority 2005, published 2009)
# “Also recorded” adds a separate entry of the source. Where a SMILES comes first, the peptide text is derived from it. [ ]: non-standard residue; d: D form. ξ: configuration not given here. ξR = N=C(N)NCCCC(N)C(=O)O; ξE = NC(CCC(=O)O)C(=O)O
# Columns and labels:
# [1] = tested on: chicks trained on a weak training task; assay: one trial passive avoidance task, weak training (10% methylanthranilate), memory enhancement; format: in vivo, chick; details: for bio-activity as a cognitive enhancer: chick, D/L forms compared with RER; for memory retention (percent showing avoidance and discrimination), FIG. 1: weak aversive learning task, ic injection 60 min pre-training, saline control
# Method: FIG. 1 The effect of different D/L forms of tripeptide as memory enhancers on weak memory. Chicks were injected ic with different D/L forms of tripeptide 60 min pre-training and tested 24 after. The control group received saline. […] Each chick was trained and tested only once and differences between groups were tested for statistical significance by G-test (Sokal, and Rohlf, 1995). Note that the G-test reflects group differences, and so there are no error bars on the figures.
# FIG. 3 The effect of Ac-rER as memory enhancer in chicks trained on a weak training task (WT). Chicks were injected 2×ip injections, 1 mg/100 gr bw, 30 min and 6 hr pre-training and tested 24 hr later. The control groups received Ac-REr. […] Each chick was trained and tested only once and differences between groups were tested for statistical significance by G-test (Sokal, and Rohlf, 1995).
# FIG. 5 Dose-dependence of the effect of Ac-rER in weak training. Chicks were injected ip with different doses of the Ac-rER 60 min pre-training and tested 24 after. The control group received saline. […] Each chick was trained and tested only once and differences between groups were tested for statistical significance by G-test (Sokal, and Rohlf, 1995).
# FIG. 6 Stability of Ac-rER. Chicks were injected ip with 2 mg/100 g bw of Ac-rER 1, 2, 4, 6 and 12 hr before training and tested 24 hr later. The control group received saline. […] Each chick was trained and tested only once and differences between groups were tested for statistical significance by G-test (Sokal, and Rohlf, 1995). […]
# Commercially obtained Ross Chunky eggs were incubated and hatched in brooders and held until 16±6 hours old. Chicks were placed in pairs in small aluminium pens. Following an equilibration period of an hour, the chicks were pretrained and trained essentially as described by Lossner and Rose (J. Neurochem. 41, 1357-1363 (1983), the contents of which are incorporated herein by reference). Pretraining involved three 10 s presentations of a small (2 mm diameter) white bead, at approximately 5 minute intervals. […] Two training techniques were used: “strong” and “weak” training. In both, 5 to 10 minutes after the last pre-training trial, chicks were trained by a 10 s presentation of a 4 mm diameter chrome bead, which had been dipped in the bitter-tasting methylanthranilate. Control chicks pecked at a water-coated or dry bead. In the “strong” version of the task, 100% methylanthranilate was used. In the “weak” version, 10% methylanthranilate was used. Chicks spontaneously pecked at the training or control beads within 20 s. Chicks that pecked at the bitter bead evinced a disgust reaction and would not normally peck at a similar, but dry bead for some hours subsequently. At various times following training chicks were tested, by offering them a dry 4 mm diameter chrome bead, followed 10 minutes later by a small (2 mm diameter) white bead, each for 20 to 30 s. Animals were tested by an experimenter blind as to which treatment each chick had received. Chicks are considered to remember the task if they avoid the chrome bead at test but peck at the white bead (discriminate), and to have forgotten it if they peck at both beads. Recall is calculated as a percent avoidance score (percentage of chicks which avoid the chrome bead) and as a discrimination score (percentage of chicks which avoid the chrome but peck at the white bead). […] Each chick was trained and tested only once and differences between groups tested for statistical significance by g-test described by Sokal and Rohlf (biometry: the Principles and Practice of Statistics in Biological Research (2nd edition), W H Freeman, New York (1981)), the contents of which are incorporated herein by reference. […]
# [2] = tested on: chicks with Aβ1-42-induced amnesia; assay: passive avoidance task in chicks with Aβ-induced amnesia; format: in vivo, chick; details: for protection against amyloid-beta induced memory loss: chick
# Method: FIG. 2 The effect of Ac-rER on memory in chicks with Aβ-induced amnesia. Chicks were injected 2×ip, 1 mg/100 gr bw, with Ac-rER, 6 hr and 12 hr pre-training. Aβ1-42 (2 μg/hemisphere) was injected ic 60 min pre-training. Chicks were tested 24 hr later. […] Each chick was trained and tested only once and differences between groups were tested for statistical significance by G-test (Sokal, and Rohlf, 1995).
# Commercially obtained Ross Chunky eggs were incubated and hatched in brooders and held until 16±6 hours old. Chicks were placed in pairs in small aluminium pens. Following an equilibration period of an hour, the chicks were pretrained and trained essentially as described by Lossner and Rose (J. Neurochem. 41, 1357-1363 (1983), the contents of which are incorporated herein by reference). Pretraining involved three 10 s presentations of a small (2 mm diameter) white bead, at approximately 5 minute intervals. […] Two training techniques were used: “strong” and “weak” training. In both, 5 to 10 minutes after the last pre-training trial, chicks were trained by a 10 s presentation of a 4 mm diameter chrome bead, which had been dipped in the bitter-tasting methylanthranilate. Control chicks pecked at a water-coated or dry bead. In the “strong” version of the task, 100% methylanthranilate was used. In the “weak” version, 10% methylanthranilate was used. Chicks spontaneously pecked at the training or control beads within 20 s. Chicks that pecked at the bitter bead evinced a disgust reaction and would not normally peck at a similar, but dry bead for some hours subsequently. At various times following training chicks were tested, by offering them a dry 4 mm diameter chrome bead, followed 10 minutes later by a small (2 mm diameter) white bead, each for 20 to 30 s. Animals were tested by an experimenter blind as to which treatment each chick had received. […] Recall is calculated as a percent avoidance score (percentage of chicks which avoid the chrome bead) and as a discrimination score (percentage of chicks which avoid the chrome but peck at the white bead). […]
# [3] = tested on: chicks with Anisomycin-induced amnesia; assay: passive avoidance task, Anisomycin-induced amnesia in chicks; format: in vivo, chick; details: 8 μg/hemisphere ic pre-training; Anisomycin 125 nmol/hemisphere ic immediately post-training; tested 3 hr post training
# Method: FIG. 7 Effect of Ac-rER on Anisomycin-induced amnesia in chicks. Chicks were injected ic with 8 μg/hemisphere of Ac-rER 60 min pre-training followed by ic injection of Anisomycin (125 nmol/hemisphere). immediately post-training. Controls were injected with saline. Chicks were tested 3 hr post training. […] Each chick was trained and tested only once and differences between groups were tested for statistical significance by G-test (Sokal, and Rohlf, 1995).
# Commercially obtained Ross Chunky eggs were incubated and hatched in brooders and held until 16±6 hours old. Chicks were placed in pairs in small aluminium pens. Following an equilibration period of an hour, the chicks were pretrained and trained essentially as described by Lossner and Rose (J. Neurochem. 41, 1357-1363 (1983), the contents of which are incorporated herein by reference). Pretraining involved three 10 s presentations of a small (2 mm diameter) white bead, at approximately 5 minute intervals. […] Two training techniques were used: “strong” and “weak” training. […] Recall is calculated as a percent avoidance score (percentage of chicks which avoid the chrome bead) and as a discrimination score (percentage of chicks which avoid the chrome but peck at the white bead). […]
# [4] = tested on: chicks with MK801-induced amnesia; assay: passive avoidance task, MK801-induced amnesia in chicks; format: in vivo, chick; details: 8 μg/hemisphere ic pre-training; MK801 0.020 mg/100 gr ip pre-training; tested 3 hr later
# Method: FIG. 8 Effect of Ac-rER on MK801-induced amnesia. Chicks were injected ic with 8 μg/hemisphere of Ac-rER 60 min pre-training followed by ip injection of MK80 1 (0.020 mg/100 gr) pre-training. Controls were injected with saline. Chicks were tested 3 hr later. […] Each chick was trained and tested only once and differences between groups were tested for statistical significance by G-test (Sokal, and Rohlf, 1995).
# Commercially obtained Ross Chunky eggs were incubated and hatched in brooders and held until 16±6 hours old. Chicks were placed in pairs in small aluminium pens. Following an equilibration period of an hour, the chicks were pretrained and trained essentially as described by Lossner and Rose (J. Neurochem. 41, 1357-1363 (1983), the contents of which are incorporated herein by reference). Pretraining involved three 10 s presentations of a small (2 mm diameter) white bead, at approximately 5 minute intervals. […] Two training techniques were used: “strong” and “weak” training. In both, 5 to 10 minutes after the last pre-training trial, chicks were trained by a 10 s presentation of a 4 mm diameter chrome bead, which had been dipped in the bitter-tasting methylanthranilate. […] Recall is calculated as a percent avoidance score (percentage of chicks which avoid the chrome bead) and as a discrimination score (percentage of chicks which avoid the chrome but peck at the white bead). […]
# [5] = tested on: chicks trained on a weak training task; details: as described in WO02/083729; cited from earlier work
compound,measurement,setting,value
CC(=O)NC(CCCNC(=N)N)C(=O)NC(CCC(=O)O)C(=O)N[C@@H](CCCNC(=N)N)C(N)=O (stereo partly drawn) [Ac-rER] (Ac-[ξR]-[ξE]-Arg-NH2),"performance on the weak training task, FIG. 3","[1]; 2×ip injections, 1 mg/100 gr bw, 30 min and 6 hr pre-training, tested 24 hr later, control Ac-REr",significantly enhanced; also recorded: effective when injected peripherally
same,bio-activity as a cognitive enhancer,[1],active as a cognitive enhancer
same,bio-activity as a cognitive enhancer,[1]; listed as Ac-RER,effective as a cognitive enhancer
same,"dose sufficient to enhance memory, FIG. 5","[1]; ip 60 min pre-training, tested 24 after",1 mg per 100 g body weight
same,time prior to training at which injection still acts as cognitive enhancer and neuroprotective agent,"[1]; ip, FIGS. 2 and 3",up to 12 hr
same,"persistence of effect: time before training at which peptide is effective, FIG. 6","[1]; single ip injection of 1-2 mg/100 g bw, tested 24 hr later",≤ 12 h
same,"time of administration before training at which peptide is most effective, FIG. 6","[1]; single ip injection, weak training",4 h
same,"memory retention (percent showing avoidance and discrimination), FIG. 1",[1]; tested 24 after,enhances memory retention to the levels observed in the chick treated with the Ac-L/L/L/ form
same,"memory retention (percent showing avoidance and discrimination), FIG. 1","[1]; tested 24 after, listed as Ac-ReR",significant but lesser effects
same,"memory retention in Aβ-induced amnesia, FIG. 2","[2]; 2×ip, 1 mg/100 gr bw, 6 hr and 12 hr pre-training, Aβ1-42 2 μg/hemisphere ic 60 min pre-training, tested 24 hr later",restores cognitive function and prevents memory loss
same,protection against amyloid-beta induced memory loss,[2],protecting against amyloid-beta induced memory loss
same,protection against amyloid-beta induced memory loss,[2]; listed as Ac-RER,protecting against amyloid-beta
same,"effect on Anisomycin-induced amnesia, FIG. 7",[3],prevents either of these drugs from inducing amnesia
same,"effect on MK801-induced amnesia, FIG. 8",[4],prevents either of these drugs from inducing amnesia
Arg-Glu-Arg [RER],"time prior to training at which injection is still effective (maximum), unprotected L-form",[5],≤ 3 h
